Experimental findings from ChEMBL document CHEMBL5465560, “Selectivity Literature for EUbOPEN Chemogenomic Library” (2024) are described below.

Structures are written as SMILES.

Assay [1] concerns the target Tyrosine-protein kinase HCK (Homo sapiens) (UniProt P08631). Put plainly: Selectivity interaction (Kinase panel (Z-LYTE Assay)) EUB0001632a HCK. As to conditions: at 10 µM.
Assay [2] has as its target Tyrosine-protein kinase JAK2 (Homo sapiens, UniProt O60674). Put plainly: Selectivity interaction (Kinase panel (Carna Biosciences)) EUB0001542aTs JAK2. The following applies: at 1 µM.
Assay [3] addresses Serine/threonine-protein kinase 35 (Homo sapiens) (UniProt Q8TDR2). Put plainly: Selectivity interaction (Ambit KINOMEscan and KiNATiv profiling in Jurkat cells) EUB0000090b STK35. The following applies: at 1 µM. Type of assay: cell-based.
Assay [4] relates to ALK tyrosine kinase receptor (Homo sapiens), Q9UM73 [C1156Y]. Put plainly: (§1) Selectivity interaction (Ambit KINOMEscan and KiNATiv profiling in Jurkat cells) EUB0000090b ALK. Type of assay: cell-based. The following applies: at 1 µM.
In assay [5] the test system is ALK tyrosine kinase receptor (Homo sapiens), Q9UM73 [L1196M]. The assay is described as §1. It counts as cell-based. As to conditions: at 1 µM.
Assay [6] concerns the target ALK tyrosine kinase receptor (Homo sapiens, UniProt Q9UM73). Described as §1. Type of assay: cell-based. The following applies: at 1 µM.
Assay [7] has as its target T1, Membrane-associated tyrosine- and threonine-specific cdc2-inhibitory kinase (Homo sapiens) (UniProt Q99640).
T1 sequence (whole entry): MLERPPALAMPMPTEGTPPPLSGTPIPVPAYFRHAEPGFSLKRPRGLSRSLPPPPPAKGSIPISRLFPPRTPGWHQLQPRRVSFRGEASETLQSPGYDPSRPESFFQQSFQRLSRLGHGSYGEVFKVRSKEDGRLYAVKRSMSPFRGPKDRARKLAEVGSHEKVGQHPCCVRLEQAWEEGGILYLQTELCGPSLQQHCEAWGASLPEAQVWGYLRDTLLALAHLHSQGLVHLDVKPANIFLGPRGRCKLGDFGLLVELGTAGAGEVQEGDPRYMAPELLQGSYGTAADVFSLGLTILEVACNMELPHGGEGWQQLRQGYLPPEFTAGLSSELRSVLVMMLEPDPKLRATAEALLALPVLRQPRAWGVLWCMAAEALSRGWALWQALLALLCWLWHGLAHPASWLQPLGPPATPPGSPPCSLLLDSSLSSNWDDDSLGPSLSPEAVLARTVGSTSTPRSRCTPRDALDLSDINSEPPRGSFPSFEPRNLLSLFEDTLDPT
Put plainly: Selectivity interaction (Ambit KINOMEscan and KiNATiv profiling in Jurkat cells) EUB0000090b PKMYT1. It counts as cell-based. The following applies: at 1 µM.

Assay [8] has as its target Cyclin-dependent kinase 17 (Homo sapiens) (UniProt Q00537). Put plainly: Selectivity interaction (KinomeScan (DiscoverX)) EUB0000229b CDK17. The following applies: at 10 µM.
For assay [9], the target named is Eukaryotic translation initiation factor 2-alpha kinase 1 (Homo sapiens) (UniProt Q9BQI3). Put plainly: Selectivity interaction (KinomeScan (DiscoverX)) EUB0000655a EIF2AK1. As to conditions: at 10 µM.
The target of assay [10] is T2, Ephrin type-B receptor 3 (Homo sapiens) (UniProt P54753).
T2 sequence (whole entry): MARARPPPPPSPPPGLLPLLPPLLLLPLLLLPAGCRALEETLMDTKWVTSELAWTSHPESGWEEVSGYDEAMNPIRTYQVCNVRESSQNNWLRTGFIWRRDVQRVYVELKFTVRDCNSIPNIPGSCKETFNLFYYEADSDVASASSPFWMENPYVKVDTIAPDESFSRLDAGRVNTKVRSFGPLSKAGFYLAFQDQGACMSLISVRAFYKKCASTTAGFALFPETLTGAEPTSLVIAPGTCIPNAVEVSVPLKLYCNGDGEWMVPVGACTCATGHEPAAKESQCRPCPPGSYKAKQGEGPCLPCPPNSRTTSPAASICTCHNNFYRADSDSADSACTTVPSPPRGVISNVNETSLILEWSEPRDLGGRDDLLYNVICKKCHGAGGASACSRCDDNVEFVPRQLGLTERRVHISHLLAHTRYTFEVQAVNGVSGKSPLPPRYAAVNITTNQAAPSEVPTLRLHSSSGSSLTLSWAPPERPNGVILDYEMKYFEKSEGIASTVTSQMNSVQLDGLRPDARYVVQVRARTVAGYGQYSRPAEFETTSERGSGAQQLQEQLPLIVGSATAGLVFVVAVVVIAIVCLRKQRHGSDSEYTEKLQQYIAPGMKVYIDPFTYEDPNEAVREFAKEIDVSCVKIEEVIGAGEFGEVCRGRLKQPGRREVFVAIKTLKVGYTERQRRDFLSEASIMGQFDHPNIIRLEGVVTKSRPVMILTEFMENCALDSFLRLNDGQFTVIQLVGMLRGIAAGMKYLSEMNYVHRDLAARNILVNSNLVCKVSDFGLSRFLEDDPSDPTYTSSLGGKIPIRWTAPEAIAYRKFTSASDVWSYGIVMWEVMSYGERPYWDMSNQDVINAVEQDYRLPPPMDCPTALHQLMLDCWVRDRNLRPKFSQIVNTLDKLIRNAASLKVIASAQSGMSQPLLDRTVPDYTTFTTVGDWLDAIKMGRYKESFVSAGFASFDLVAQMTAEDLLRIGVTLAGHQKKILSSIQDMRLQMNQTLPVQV
Put plainly: Selectivity interaction (KinomeScan (DiscoverX)) EUB0001619a EPHB3. The following applies: at 1 µM.

The target in assay [11] is Mitogen-activated protein kinase 10 (Homo sapiens, UniProt P53779). Put plainly: Selectivity interaction (KinomeScan (DiscoverX)) EUB0001619a MAPK10. The following applies: at 1 µM.
For assay [12], the target named is Serine/threonine-protein kinase MARK2 (Homo sapiens) (UniProt Q7KZI7). Put plainly: Selectivity interaction (ActivX KiNativ screen (ex vivo kinase selectivity in human PBMCs)) EUB0001619a MARK2. It counts as cell-based. The following applies: PBMC, at 1 µM.
Assay [13] deals with Serine/threonine-protein kinase 26 (Homo sapiens, UniProt Q9P289). As to conditions: at 1 µM.
The target in assay [14] is Ribosomal protein S6 kinase alpha-2 (Homo sapiens) (UniProt Q15349). Put plainly: Selectivity interaction (ActivX KiNativ screen (ex vivo kinase selectivity in human PBMCs)) EUB0001619a RPS6KA2. Type of assay: cell-based. As to conditions: PBMC, at 1 µM.
For assay [15], the target named is Receptor tyrosine-protein kinase erbB-2 (Homo sapiens, UniProt P04626). Put plainly: Selectivity interaction (Kinase panel (Invitrogen)) EUB0000639a ERBB2. As to conditions: at 200 nM.
Assay [16] has as its target Serine/threonine-protein kinase/endoribonuclease IRE1 (Homo sapiens) (UniProt O75460). Put plainly: Selectivity interaction (KinomeScan (DiscoverX)) EUB0001049a ERN1. The following applies: at 1 µM.
Assay [17] addresses Histone-lysine N-methyltransferase KMT5B (Homo sapiens) (UniProt Q4FZB7). Put plainly: Selectivity interaction (Transferase panel (protein, RNA, and DNA methyltransferases. and EP300 (acetyltransferase))) EUB0000270b SUV420H1.
Assay [18] deals with BDNF/NT-3 growth factors receptor (Homo sapiens) (UniProt Q16620). Put plainly: Selectivity interaction (KinomeScan (DiscoverX)) EUB0000618a NTRK2. The following applies: at 10 µM.

Sequence of Histone-lysine N-methyltransferase KMT5B (Homo sapiens) (Q4FZB7 whole entry, looked up): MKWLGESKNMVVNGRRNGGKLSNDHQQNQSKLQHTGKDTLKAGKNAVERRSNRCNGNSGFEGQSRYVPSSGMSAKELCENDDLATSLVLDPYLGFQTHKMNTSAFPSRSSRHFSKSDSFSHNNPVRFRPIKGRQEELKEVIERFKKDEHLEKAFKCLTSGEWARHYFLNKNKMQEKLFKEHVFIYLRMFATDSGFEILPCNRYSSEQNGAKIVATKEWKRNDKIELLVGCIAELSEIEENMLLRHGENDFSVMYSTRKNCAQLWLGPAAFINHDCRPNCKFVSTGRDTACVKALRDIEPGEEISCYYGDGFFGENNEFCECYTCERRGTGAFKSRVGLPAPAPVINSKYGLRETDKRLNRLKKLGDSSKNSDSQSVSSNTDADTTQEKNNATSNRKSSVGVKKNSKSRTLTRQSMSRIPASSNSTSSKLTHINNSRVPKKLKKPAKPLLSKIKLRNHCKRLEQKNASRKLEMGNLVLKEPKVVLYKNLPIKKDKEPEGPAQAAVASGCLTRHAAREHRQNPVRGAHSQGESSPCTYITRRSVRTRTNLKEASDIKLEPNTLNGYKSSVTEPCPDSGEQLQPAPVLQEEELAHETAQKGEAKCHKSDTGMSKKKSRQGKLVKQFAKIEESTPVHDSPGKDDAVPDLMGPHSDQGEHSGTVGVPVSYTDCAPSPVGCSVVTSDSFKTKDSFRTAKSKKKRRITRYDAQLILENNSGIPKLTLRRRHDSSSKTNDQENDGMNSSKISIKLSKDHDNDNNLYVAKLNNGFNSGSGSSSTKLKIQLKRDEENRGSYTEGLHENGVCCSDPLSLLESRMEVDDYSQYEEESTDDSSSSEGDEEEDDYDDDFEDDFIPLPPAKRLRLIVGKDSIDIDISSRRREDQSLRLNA
Sequence of Serine/threonine-protein kinase MARK2 (Homo sapiens) (Q7KZI7 whole entry): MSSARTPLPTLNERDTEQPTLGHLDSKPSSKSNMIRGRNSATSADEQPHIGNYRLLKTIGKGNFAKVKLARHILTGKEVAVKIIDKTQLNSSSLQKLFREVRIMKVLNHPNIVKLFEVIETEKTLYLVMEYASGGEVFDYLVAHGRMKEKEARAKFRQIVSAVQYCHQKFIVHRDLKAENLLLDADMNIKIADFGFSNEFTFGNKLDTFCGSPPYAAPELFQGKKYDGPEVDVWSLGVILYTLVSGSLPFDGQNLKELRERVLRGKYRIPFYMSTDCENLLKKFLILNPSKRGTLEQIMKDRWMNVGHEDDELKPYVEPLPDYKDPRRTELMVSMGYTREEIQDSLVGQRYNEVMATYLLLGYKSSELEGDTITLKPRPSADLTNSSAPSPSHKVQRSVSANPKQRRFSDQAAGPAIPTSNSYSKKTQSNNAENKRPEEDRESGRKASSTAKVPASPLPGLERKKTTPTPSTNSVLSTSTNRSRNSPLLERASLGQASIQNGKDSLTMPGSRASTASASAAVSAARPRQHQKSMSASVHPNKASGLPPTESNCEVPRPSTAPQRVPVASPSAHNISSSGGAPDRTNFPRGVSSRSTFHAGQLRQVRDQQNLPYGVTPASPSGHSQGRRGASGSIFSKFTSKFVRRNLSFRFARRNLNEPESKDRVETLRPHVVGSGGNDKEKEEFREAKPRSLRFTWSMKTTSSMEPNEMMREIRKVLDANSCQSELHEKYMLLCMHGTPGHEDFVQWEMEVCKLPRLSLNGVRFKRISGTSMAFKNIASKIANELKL
Sequence of Tyrosine-protein kinase HCK (Homo sapiens) (P08631 2-526 limits assumed): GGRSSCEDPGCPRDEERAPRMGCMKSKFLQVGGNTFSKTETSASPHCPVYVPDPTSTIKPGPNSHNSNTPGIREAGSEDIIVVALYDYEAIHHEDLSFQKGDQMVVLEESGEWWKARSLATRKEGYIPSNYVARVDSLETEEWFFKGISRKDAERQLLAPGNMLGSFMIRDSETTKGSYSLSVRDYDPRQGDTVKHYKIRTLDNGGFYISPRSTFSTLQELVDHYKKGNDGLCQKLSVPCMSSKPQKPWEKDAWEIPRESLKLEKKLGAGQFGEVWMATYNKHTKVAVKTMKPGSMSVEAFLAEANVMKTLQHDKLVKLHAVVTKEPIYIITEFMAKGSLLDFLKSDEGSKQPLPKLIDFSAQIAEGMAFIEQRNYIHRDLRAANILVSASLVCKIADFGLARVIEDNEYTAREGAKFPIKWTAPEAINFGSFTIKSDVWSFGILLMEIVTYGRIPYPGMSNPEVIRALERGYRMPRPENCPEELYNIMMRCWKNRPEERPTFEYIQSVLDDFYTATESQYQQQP
Sequence of Serine/threonine-protein kinase 26 (Q9P289 2-416 limits assumed): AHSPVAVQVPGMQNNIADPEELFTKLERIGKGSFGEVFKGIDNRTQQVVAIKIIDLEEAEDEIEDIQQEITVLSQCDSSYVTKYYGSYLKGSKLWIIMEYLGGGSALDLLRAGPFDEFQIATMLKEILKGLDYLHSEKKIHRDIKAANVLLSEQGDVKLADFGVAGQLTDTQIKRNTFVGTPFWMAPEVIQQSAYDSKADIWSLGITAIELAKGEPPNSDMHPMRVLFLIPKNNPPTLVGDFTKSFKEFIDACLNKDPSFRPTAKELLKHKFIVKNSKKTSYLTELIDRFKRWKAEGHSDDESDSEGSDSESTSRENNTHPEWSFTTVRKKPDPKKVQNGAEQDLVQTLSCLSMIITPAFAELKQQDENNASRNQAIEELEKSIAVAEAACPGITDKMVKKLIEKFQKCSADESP
Sequence of ALK tyrosine kinase receptor (Q9UM73 19-1620 limits assumed): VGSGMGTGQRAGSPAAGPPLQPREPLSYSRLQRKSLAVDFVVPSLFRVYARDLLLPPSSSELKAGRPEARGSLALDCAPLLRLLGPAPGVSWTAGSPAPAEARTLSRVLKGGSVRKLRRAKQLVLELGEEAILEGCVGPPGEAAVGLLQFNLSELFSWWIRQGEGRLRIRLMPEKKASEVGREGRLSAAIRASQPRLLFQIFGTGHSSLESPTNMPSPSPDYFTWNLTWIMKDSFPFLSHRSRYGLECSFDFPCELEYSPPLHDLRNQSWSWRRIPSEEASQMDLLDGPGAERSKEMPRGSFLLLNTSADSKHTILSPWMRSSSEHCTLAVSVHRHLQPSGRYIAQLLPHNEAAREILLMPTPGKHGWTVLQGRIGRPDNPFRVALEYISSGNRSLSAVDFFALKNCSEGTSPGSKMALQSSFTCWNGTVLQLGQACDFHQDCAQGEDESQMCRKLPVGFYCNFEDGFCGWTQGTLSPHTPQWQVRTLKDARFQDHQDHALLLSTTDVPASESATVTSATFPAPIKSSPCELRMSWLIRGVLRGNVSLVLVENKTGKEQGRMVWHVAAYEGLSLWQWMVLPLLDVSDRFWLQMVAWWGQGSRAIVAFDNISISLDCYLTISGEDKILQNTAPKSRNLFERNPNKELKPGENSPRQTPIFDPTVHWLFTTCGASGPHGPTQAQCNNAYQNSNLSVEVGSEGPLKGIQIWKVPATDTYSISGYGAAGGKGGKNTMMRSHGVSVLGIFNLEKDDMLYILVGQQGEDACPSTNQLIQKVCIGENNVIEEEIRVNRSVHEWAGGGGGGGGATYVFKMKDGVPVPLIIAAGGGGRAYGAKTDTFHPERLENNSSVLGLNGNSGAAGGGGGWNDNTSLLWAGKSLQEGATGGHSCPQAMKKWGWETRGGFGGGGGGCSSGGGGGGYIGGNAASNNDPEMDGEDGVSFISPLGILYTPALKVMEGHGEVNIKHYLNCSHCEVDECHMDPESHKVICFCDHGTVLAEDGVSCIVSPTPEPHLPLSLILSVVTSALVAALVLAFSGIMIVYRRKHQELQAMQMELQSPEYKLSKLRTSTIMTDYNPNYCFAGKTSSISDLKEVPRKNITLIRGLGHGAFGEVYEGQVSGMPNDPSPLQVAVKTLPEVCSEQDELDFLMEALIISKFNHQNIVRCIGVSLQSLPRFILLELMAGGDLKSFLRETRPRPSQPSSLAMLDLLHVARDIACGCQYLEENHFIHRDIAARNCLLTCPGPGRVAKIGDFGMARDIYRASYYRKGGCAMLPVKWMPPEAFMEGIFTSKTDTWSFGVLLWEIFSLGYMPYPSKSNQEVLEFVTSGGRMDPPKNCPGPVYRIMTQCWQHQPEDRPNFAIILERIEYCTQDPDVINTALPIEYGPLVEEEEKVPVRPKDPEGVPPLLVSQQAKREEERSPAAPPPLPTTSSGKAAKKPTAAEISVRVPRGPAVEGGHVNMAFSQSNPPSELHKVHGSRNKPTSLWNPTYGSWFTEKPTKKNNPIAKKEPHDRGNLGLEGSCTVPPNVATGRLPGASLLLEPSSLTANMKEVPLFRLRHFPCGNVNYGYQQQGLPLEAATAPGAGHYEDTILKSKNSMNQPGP
Sequence of Ribosomal protein S6 kinase alpha-2 (Homo sapiens) (Q15349 whole entry): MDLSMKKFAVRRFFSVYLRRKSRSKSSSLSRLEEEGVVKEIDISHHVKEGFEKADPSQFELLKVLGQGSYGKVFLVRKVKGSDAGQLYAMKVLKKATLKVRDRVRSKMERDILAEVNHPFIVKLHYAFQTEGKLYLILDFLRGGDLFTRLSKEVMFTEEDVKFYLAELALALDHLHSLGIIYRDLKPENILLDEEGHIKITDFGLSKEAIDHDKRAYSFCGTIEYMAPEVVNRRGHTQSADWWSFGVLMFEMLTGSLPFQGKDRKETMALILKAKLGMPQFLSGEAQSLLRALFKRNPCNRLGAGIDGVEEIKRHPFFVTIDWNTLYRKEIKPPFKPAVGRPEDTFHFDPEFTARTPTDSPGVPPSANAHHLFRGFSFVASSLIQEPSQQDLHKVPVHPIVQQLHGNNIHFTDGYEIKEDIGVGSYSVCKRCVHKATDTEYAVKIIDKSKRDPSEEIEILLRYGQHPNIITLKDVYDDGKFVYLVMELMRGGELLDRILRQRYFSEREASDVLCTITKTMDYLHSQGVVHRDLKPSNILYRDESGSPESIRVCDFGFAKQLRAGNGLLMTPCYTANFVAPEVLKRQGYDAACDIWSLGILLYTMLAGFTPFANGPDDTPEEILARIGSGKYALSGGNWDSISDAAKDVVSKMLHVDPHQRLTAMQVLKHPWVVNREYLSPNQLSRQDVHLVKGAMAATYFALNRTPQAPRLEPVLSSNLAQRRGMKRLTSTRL

Compound `Cn1cc(-n2cnc3c(NCc4nc5cc(Cl)c(Cl)cc5[nH]4)nc(N4CCOCC4)nc32)cn1` registered a % of control in [1] of 5.35%.

As for `Cn1cc(Nc2nccc(N3CC4CCC(C3)N4C(=O)[C@@H]3CC3(F)F)n2)cn1`, in assay [2], the % of inhibition stood at 101%.

Consider `CN(C)C/C=C/C(=O)Nc1ccc(C(=O)N2CCCC(Nc3ncc(Cl)c(-c4c[nH]c5ccccc45)n3)C2)cc1` (centres undefined), for which the % of control turned out to be 95% in [3]; 100% in assay [4]; 99% in assay [5]; 86% in assay [6]; 93% in assay [7].

Turning to `COc1cc(N(C)c2ccnc3ccc(C(F)(F)F)cc23)cc(OC)c1OC`, in assay [8], the % binding was found to be 88%.

For the compound `CN(C)CCOc1ccc(-c2nc(-c3ccncc3)c(-c3ccc4c(c3)CC/C4=N\O)[nH]2)cc1`, the % of control in [9] came out at 58%.

For `N#Cc1cccc(-c2c[nH]c3ncnc(N4CCOCC4)c23)c1`, the % of control in [10] came out at 100%; in assay [11], 100%; in assay [13], 7%. Also, the values for the % of inhibition in [12] and in assay [14] were 41% and -3%, respectively.

On to `CC[C@@H]1[C@H](F)C(=O)N[C@@H]1COc1nccc2cc(C(N)=O)c(OC)cc12` [ZIMLOVISERTIB], for which the % of inhibition in [15] is -2.18%.

In assay [16], `COc1cc(Nc2nc(C)cc(-c3cnn4nc(OC)ccc34)n2)cc(C(F)(F)F)c1` yielded a % of control of 100%.

Regarding `Cc1cc(CN)cc(C)c1-c1ncn(C)c1-c1cncn1C`, the % activity is more than 90% in assay [17] (at 1 µM) and more than 80% in assay [17] (at 10 µM).

As to `O[C@H]1CC[C@H](Nc2ncc3nc(Nc4c(F)cc(F)cc4F)n([C@H]4CCOC4)c3n2)CC1`, the % of control in [18] amounted to 79%.
